# Laboratory results taken from PMC7582905, “Effect of Disulfide Cyclization of Ultrashort Cationic Lipopeptides on Antimicrobial Activity and Cytotoxicity” (International Journal of Molecular Sciences, 2020).
# Read-outs that look alike come from different tables or passages of the source. Where a SMILES comes first, the peptide text is derived from it. Bridges are numbered along the chain shown (N, C = ends). The star is where a group is joined. Palmitoyl = CCCCCCCCCCCCCCCC(=O)*
# What was measured:
# [1] = tested on: Staphylococcus epidermidis ATCC 14990; type: cell-based
# Experimental: (§1) The Staphylococcus aureus ATCC 25923, Staphylococcus epidermidis ATCC 14990, Escherichia coli ATCC 25922, Pseudomonas aeruginosa ATCC 9027, Candida albicans ATCC 10231, Candida glabrata ATCC 15126, Candida lipolytica PCM 2680-FY, and Candida tropicalis PCM 2709-FY strains were acquired from the Polish Collection of Microorganisms (PCM, Polish Academy of Sciences, Wrocław, Poland) and from the American Type Culture Collection (ATCC). All the strains were stored at −80 °C in Roti-Store cryo vials and before the tests were transferred into fresh Mueller–Hinton broth (MHB, Biocorp, Warsaw, Poland) for bacteria or RPMI-1640 (Sigma-Aldrich, Steinheim, Germany) for fungi and incubated for 24 h at 37 °C. Then, the cultures were seeded on Mueller–Hinton agar (BioMaxima, Lublin, Poland) or Sabouraud dextrose agar (SDA, BioMaxima, Lublin, Poland) plates, respectively, and incubated as just mentioned. These agar cultures were used for further microbiological assays. Cell densities for all assays were adjusted spectrophotometrically (Multiskan GO Microplate Spectrophotometer, Thermo Fisher Scientific, Vantaa, Finland) at 600 and 660 nm for bacteria and fungi, respectively.
# (§2) The assay was performed to evaluate the effect of the lipopeptides in preventing biofilm formation. The preparation of inoculums was followed by a ca. 500-fold dilution of the 24 h cultures of microorganisms. Briefly, 50 μL of the compounds in the concentration range, diluted in appropriate medium, were prepared on 96-well polystyrene flat-bottom plates. Subsequently, the 50 μL of the bacterial/fungal inoculums were added to reach the same microbial density as that in the MBEC assay. After 24 h of incubation at 37 °C, the wells were rinsed three times with PBS and the fresh media with resazurin (4 g/L) were added. The MBICs were read after 1 h. All experiments were conducted in triplicate.
# [2] = tested on: Candida tropicalis PCM 2709-FY; type: cell-based
# Experimental: as §1, §2
# [3] = tested on: Candida glabrata ATCC 15126; type: cell-based
# Experimental: as §1, §2
# [4] = tested on: Staphylococcus aureus ATCC 25923; type: cell-based
# Experimental: as §1, §2
# [5] = tested on: Candida lipolytica PCM 2680-FY; type: cell-based
# Experimental: as §1, §2
# [6] = tested on: Candida albicans ATCC 10231; type: cell-based
# Experimental: as §1, §2
# [7] = tested on: Pseudomonas aeruginosa ATCC 9027; type: cell-based
# Experimental: as §1, §2
# [8] = tested on: Escherichia coli ATCC 25922; type: cell-based
# Experimental: as §1, §2
# [9] = tested on: human red blood cells (hRBCs); assay: Hemolysis assay; type: cell-based; conditions: peptide concentration causing 50% hemolysis; 4% (v/v) hRBCs in PBS, 1 h, 37 °C, absorbance 540 nm, triplicate
# Experimental: The hemolysis assay was performed by using the method reported previously. Fresh human red blood cells (hRBCs) with anticoagulant (EDTA) were rinsed three times with a PBS by centrifugation at 800× g for 10 min and diluted with PBS. The lipopeptides were serially diluted on a 96-well microtiter polystyrene plate and hRBCs were added up to a final volume of 100 μL. The peptide concentration ranged between 0.5 and 256 μg/mL and the final hRBCs concentration was 4% (v/v). Controls for zero hemolysis (blank) and 100% hemolysis consisted of hRBCs suspended in PBS and 1% of Triton-X 100, respectively. The plate was incubated for 1 h at 37 °C and then centrifuged (800× g, 10 min, 4 °C). Subsequently, the supernatant was […] to new microtiter plates and the absorbance at 540 nm was measured. All experiments were conducted in triplicate. HC50 was calculated using an ic50.tk tool. Protocol of the study received approval from the local Bioethics Committee at the Medical University of Gdańsk (NKBBN/262/2019, approval date: 10 June 2019).
# [10] = RP-HPLC determination of peptide hydrophobicity; type: physicochemical; conditions: 0.1% TFA; for reduced retention time t’R: RP-HPLC retention as measure of hydrophobicity, Waters X-Bridge Shield RP-18 3.0 × 100 mm, 3.5 μm, linear 20–65% acetonitrile in water over 30 min, 0.5 mL/min, 25.0 °C, UV 214 nm, 1 g/L, triplicate; for ∆tR: tR of cyclic analog − tR of parent lipopeptide, RP-HPLC, RP-18, 20–65% acetonitrile over 30 min
# Experimental: The peptides were analyzed by RP-HPLC to determine relative hydrophobicity vs. retention time of each compound. In general, more hydrophobic lipopeptides will elute later than hydrophilic ones. Using this simple rule enables comparison of hydrophobicity by reduced retention times (t’R) and differences in retention time between the cyclic analog and its linear parent lipopeptide (Table 1). It can be deduced that the presence of cystine moiety has led to increased hydrophobicity. All cyclic lipopeptides are more hydrophobic than their linear counterparts but the effect of disulfide cyclization on retention is different in each pair. The highest increase in retention was noticed for the shortest lipopeptides L1 (C16-KKK-NH2) and C1 (C16-CKKKC-NH2). The differences between lipopeptides with one arginine residue indicate that its position is crucial for retention and therefore hydrophobicity. To learn how the arginine position affects hydrophobicity, the retention time of compound L2 (C16-KKKK-NH2) or C2 (C16-CKKKKC-NH2) was subtracted from that of the lipopeptides with one arginine residue, linear (L3, L4, L5, L6) or cyclic (C3, C4, C5, C6), respectively. In Figure 2 the effect of arginine position on retention time is related to unsubstituted lipopeptide.
# To determine peptide hydrophobicity, a Waters Alliance e2695 system with a Waters 2998 PDA Detector (software-Empower 3, Waters, Milford, MA, USA) was used. All analyses were carried out on a Waters X-Bridge Shield RP-18 column (3.0 × 100 mm, 3.5 μm particle size, 130 Å pore size). The Shield Technology column with embedded polar groups was used to minimize interactions of unreacted silanol groups with basic lipopeptides. The peptides were dissolved in water (0.1% TFA, v/v) up to a concentration of 1 g/L. UV detection at 214 nm was used, and samples (10 μL) were eluted with a linear 20–65% acetonitrile gradient in deionized water over 30 min at 25.0 ± 0.1 °C. The mobile phase flow rate was 0.5 mL/min. Both eluents contained 0.1% (v/v) of TFA. Each peptide sample was analyzed in triplicate. Maximum standard deviation and coefficient of variation were 0.042 and 0.25%, respectively.
# [11] = prevention of biofilm formation on polystyrene plates, 24 h at 37 °C, resazurin, triplicate
Structure (SMILES),"MBIC S. epidermidis ([1]; ATCC 14990, 24 h) [µg/mL]","MBIC C. tropicalis ([2]; PCM 2709-FY, 24 h) [µg/mL]","MBIC C. glabrata ([3]; ATCC 15126, 24 h) [µg/mL]","MBIC S. aureus ([4]; ATCC 25923, 24 h) [µg/mL]",MBIC C. lipolytica ([5]; 24 h) [µg/mL],"MBIC C. albicans ([6]; ATCC 10231, 24 h) [µg/mL]","MBIC P. aeruginosa ([7]; ATCC 9027, 24 h) [µg/mL]","MBIC E. coli ([8]; ATCC 25922, 24 h) [µg/mL]",HC50 [9] [µg/mL],reduced retention time t’R [10] [min],∆tR [10],"MBIC S. epidermidis [1, 11] [µg/mL]","MBIC C. tropicalis [2, 11] [µg/mL]","MBIC C. glabrata [3, 11] [µg/mL]","MBIC S. aureus [4, 11] [µg/mL]","MBIC C. lipolytica [5, 11] [µg/mL]","MBIC C. albicans [6, 11] [µg/mL]","MBIC P. aeruginosa [7, 11] [µg/mL]","MBIC E. coli [8, 11] [µg/mL]"
"CCCCCCCCCCCCCCCC(=O)N[C@H]1CSSC[C@@H](C(N)=O)NC(=O)[C@H](CCCCN)NC(=O)[C@H](CCCCN)NC(=O)[C@H](CCCCN)NC1=O [C1, C16-CKKKC-NH2] (Palmitoyl-CKKKC-NH2; disulfide 1-5)",16,32,32,16,16,32,128,64,43.9 ± 3.5,18.05,+1.91 min,–,–,–,–,–,–,–,–
"CCCCCCCCCCCCCCCC(=O)N[C@H]1CSSC[C@@H](C(N)=O)NC(=O)[C@H](CCCCN)NC(=O)[C@H](CCCCN)NC(=O)[C@H](CCCCN)NC(=O)[C@H](CCCCN)NC1=O [C2, C16-CKKKKC-NH2] (Palmitoyl-CKKKKC-NH2; disulfide 1-6)",–,–,–,–,–,–,–,–,30.6 ± 1.1,15.95,+1.18 min,4,8,32,16,8,16,64,32
"CCCCCCCCCCCCCCCC(=O)N[C@H]1CSSC[C@@H](C(N)=O)NC(=O)[C@H](CCCCN)NC(=O)[C@H](CCCCN)NC(=O)[C@H](CCCCN)NC(=O)[C@H](CCCNC(=N)N)NC1=O [C3, C16-CRKKKC-NH2] (Palmitoyl-CRKKKC-NH2; disulfide 1-6)",8,4,8,16,2,8,64,64,66.5 ± 14.8,16.51,+1.30 min,–,–,–,–,–,–,–,–
"CCCCCCCCCCCCCCCC(=O)N[C@H]1CSSC[C@@H](C(N)=O)NC(=O)[C@H](CCCCN)NC(=O)[C@H](CCCCN)NC(=O)[C@H](CCCNC(=N)N)NC(=O)[C@H](CCCCN)NC1=O [C4, C16-CKRKKC-NH2] (Palmitoyl-CKRKKC-NH2; disulfide 1-6)",8,4,16,16,4,8,32,32,122.4 ± 16.5,16.10,+0.92 min,–,–,–,–,–,–,–,–
"CCCCCCCCCCCCCCCC(=O)N[C@H]1CSSC[C@@H](C(N)=O)NC(=O)[C@H](CCCCN)NC(=O)[C@H](CCCNC(=N)N)NC(=O)[C@H](CCCCN)NC(=O)[C@H](CCCCN)NC1=O [C5, C16-CKKRKC-NH2] (Palmitoyl-CKKRKC-NH2; disulfide 1-6)",16,8,16,32,8,16,64,32,97.0 ± 15.4,16.16,+1.15 min,–,–,–,–,–,–,–,–
"CCCCCCCCCCCCCCCC(=O)N[C@H]1CSSC[C@@H](C(N)=O)NC(=O)[C@H](CCCNC(=N)N)NC(=O)[C@H](CCCCN)NC(=O)[C@H](CCCCN)NC(=O)[C@H](CCCCN)NC1=O [C6, C16-CKKKRC-NH2] (Palmitoyl-CKKKRC-NH2; disulfide 1-6)",8,8,8,32,8,16,64,64,71.0 ± 6.4,16.32,+1.43 min,–,–,–,–,–,–,–,–
"CCCCCCCCCCCCCCCC(=O)N[C@H]1CSSC[C@@H](C(N)=O)NC(=O)[C@H](CCCCN)NC(=O)[C@H](CCCCN)NC(=O)[C@H](CCCNC(=N)N)NC(=O)[C@H](CCCNC(=N)N)NC1=O [C7, C16-CRRKKC-NH2] (Palmitoyl-CRRKKC-NH2; disulfide 1-6)",16,8,16,16,8,16,128,128,92.0 ± 9.6,16.83,+1.25 min,–,–,–,–,–,–,–,–
